Tests used:
[1] = target: T1, TrlD (Streptomyces cyaneofuscatus, UniProt A0A2S1JZG9); experiment: co-purification with bound flavin; format: binding; details: FAD preferred over FMN as flavin substrate
T1 construct: heterologously produced and purified; fraction co-purified with FAD
T1 sequence (A0A2S1JZG9 1-185): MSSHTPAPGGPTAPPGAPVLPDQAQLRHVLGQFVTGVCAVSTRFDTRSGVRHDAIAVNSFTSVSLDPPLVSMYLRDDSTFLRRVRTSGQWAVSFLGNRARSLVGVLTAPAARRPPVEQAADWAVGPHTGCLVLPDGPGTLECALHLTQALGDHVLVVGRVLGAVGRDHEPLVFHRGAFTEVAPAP

[2] = target: T2, TrlE (Streptomyces cyaneofuscatus, UniProt A0A2S1JZI9); experiment: X-ray crystallography ([…] A); format: binding; details: FAD non-covalently bound, IN conformation
T2 construct: heterologously produced and purified; crystal structure model residues 1-400
T2 sequence (A0A2S1JZI9 1-400): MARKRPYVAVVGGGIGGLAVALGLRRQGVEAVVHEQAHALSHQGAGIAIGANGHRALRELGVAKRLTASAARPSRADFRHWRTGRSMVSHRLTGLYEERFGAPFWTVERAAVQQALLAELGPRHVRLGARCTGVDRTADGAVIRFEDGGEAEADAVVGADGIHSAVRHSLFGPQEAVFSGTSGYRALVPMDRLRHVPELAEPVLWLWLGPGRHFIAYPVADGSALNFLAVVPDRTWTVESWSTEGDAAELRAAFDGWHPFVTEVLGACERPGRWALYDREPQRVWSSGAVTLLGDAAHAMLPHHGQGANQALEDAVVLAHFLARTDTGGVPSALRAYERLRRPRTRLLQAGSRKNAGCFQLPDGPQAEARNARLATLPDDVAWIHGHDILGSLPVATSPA

[3] = target: T2, TrlE; experiment: differential scanning fluorimetry; format: binding; details: substrate analogue; thermal shift
[4] = target: T1, TrlD; experiment: flavin reductase assay, cofactor specificity; format: biochemical; details: preferred over NADPH
[5] = target: T3, TrlE (Streptomyces cyaneofuscatus, UniProt A0A2S1JZI9, H213E); experiment: substrate consumption and product formation assay; format: biochemical; details: strongly reduced activity, minor product formation
T3 construct: heterologously produced and purified; crystal structure model residues 1-400
T3 sequence (A0A2S1JZI9 entry or part of it H213E): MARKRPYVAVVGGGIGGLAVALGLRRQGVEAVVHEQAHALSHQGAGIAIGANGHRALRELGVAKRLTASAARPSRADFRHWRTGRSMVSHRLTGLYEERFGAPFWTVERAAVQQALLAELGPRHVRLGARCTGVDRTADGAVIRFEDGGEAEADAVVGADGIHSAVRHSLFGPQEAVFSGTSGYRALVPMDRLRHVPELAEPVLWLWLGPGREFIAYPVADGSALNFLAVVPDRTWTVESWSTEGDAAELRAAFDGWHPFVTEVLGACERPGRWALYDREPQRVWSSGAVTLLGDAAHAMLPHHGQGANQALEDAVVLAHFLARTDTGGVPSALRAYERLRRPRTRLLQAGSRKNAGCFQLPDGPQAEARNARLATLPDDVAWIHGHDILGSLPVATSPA

[6] = target: T4, TrlE (Streptomyces cyaneofuscatus, UniProt A0A2S1JZI9, Y217F); experiment: substrate consumption and product formation assay; format: biochemical; details: strongly reduced activity
T4 construct: heterologously produced and purified; crystal structure model residues 1-400
T4 sequence (A0A2S1JZI9 entry or part of it Y217F): as the sequence (A0A2S1JZI9 entry or part of it H213E) above, with E213H, Y217F counted along it

[7] = target: T5, TrlE (Streptomyces cyaneofuscatus, UniProt A0A2S1JZI9, H213Q); experiment: substrate consumption and product formation assay; format: biochemical; details: strongly reduced activity, minor product formation
T5 construct: heterologously produced and purified; crystal structure model residues 1-400
T5 sequence (A0A2S1JZI9 entry or part of it H213Q): as the sequence (A0A2S1JZI9 entry or part of it H213E) above, with E213Q counted along it

## Cc1cc2nc3c(=O)[nH]c(=O)nc-3n(C[C@H](O)[C@H](O)[C@H](O)COP(=O)(O)OP(=O)(O)OC[C@H]3O[C@@H](n4cnc5c(N)ncnc54)[C@H](O)[C@@H]3O)c2cc1C [FAD]
[1]
  co-purification with bound flavin: a fraction of TrlD was co-purified with bound FAD
[2]
  X-ray crystallography (2.5 A): The non-covalently bound FAD observed in this structure is present in the “IN” conformation

## O=C(O)c1cccccc1=O [tropone-2-carboxylate]
[3]
  differential scanning fluorimetry: binding of these compounds to TrlE was confirmed by differential scanning fluorimetry (DSF)

## NC(=O)C1=CN([C@@H]2O[C@H](COP(=O)(O)OP(=O)(O)OC[C@H]3O[C@@H](n4cnc5c(N)ncnc54)[C@H](O)[C@@H]3O)[C@@H](O)[C@H]2O)C=CC1 [NADH]
[4]
  flavin reductase assay, cofactor specificity: TrlD preferred FAD and NADH over FMN and NADPH, respectively

## O=C(O)c1ccccc1O [salicylate]
[3]
  differential scanning fluorimetry: binding of these compounds to TrlE was confirmed by differential scanning fluorimetry (DSF)

## O=C(O)C1=C(O)CC=CC=C1 [compound 7, dihydrotropone-2-carboxylate]
[5]
  substrate consumption and product formation assay: For both H213E and H213Q variants, minor product formation was still observed
[6]
  substrate consumption and product formation assay: the other variants showed strongly reduced catalytic activity, with slowed substrate consumption and product formation
[7]
  substrate consumption and product formation assay: For both H213E and H213Q variants, minor product formation was still observed

Reference: paper PMC11110157, “Biosynthesis of the bacterial antibiotic 3,7-dihydroxytropolone through enzymatic salvaging of catabolic shunt products” (Chemical Science, 2024)
